Earlier results, collected in patent publication US7829717B2, “(Arylamidoaryl)squaramide compounds” (OSI Pharmaceuticals, Inc., priority 2004, dated 2010).
Counter-ions that a name gives are not always drawn.

Test system: MO7e human leukemia cells

Cc1ccc(NC(=O)c2ccc(CN3CCN(C)CC3)cc2)cc1Nc1nccc(-c2cccnc2)n1 [Gleevec, imatinib mesylate]
GM-CSF stimulated growth of MO7e human leukemia cells (GM-CSF stimulated): not affected | Kit ligand-stimulated growth of MO7e human leukemia cells (Kit ligand-stimulated): inhibited
